From patent US9206136B2, “Pyrazolyl-based carboxamides I” (Grünenthal GmbH, priority 2013, dated 2015)

Legend:
[1] = tested on: Interleukin-2 (IL-2) production/release in Jurkat T cell line clone E6-1; assay: Jurkat IL-2 Production Assay; assay type: cell-based; settings: Homo sapiens; Jurkat T cells stimulated with 15 μg/ml PHA for 22 hours; IL-2 in supernatant (AlphaLisa)
Protocol: Jurkat IL-2 Production Assay
The effect of compounds of the invention on Interleukin-2 (IL-2) production/release was tested in the Jurkat T cell line (ECACC) clone E6-1.
Jurkat T cells were cultured in DMEM/F12/Glutamax (Gibco) containing 10% FCS (Gibco), and maintained at 37° C., 5% CO2. Cells were split twice a week [5·10^6 (Mon-Thu) and 1·10^7 (Thu-Mon) cells/50 ml medium in T-175 ZK culture flasks, respectively].
Prior to experiment, cells were seeded on 96 well plates (Cellstar 96 Well; Cat No. 655180, Greiner bio-one) at a density of 5·10^5 cells/well in DMEM/F12/Glutamax (Gibco) containing 10% FCS (Gibco), and incubated for 60 min at 37° C., 5% CO2. Subsequently, compounds were added and cells were allowed to incubate for 30 min at 37° C., 5% CO2. Cells were then stimulated with 15 μg/ml Phyto-hemagglutinin (PHA; Sigma) for 22 hours at 37° C., 5% CO2.
Before sampling of the supernatants, cells were spun down (200*g/5 min/RT). The amount of IL-2 released into the supernatant was quantified with the human IL-2 AlphaLisa kit (Perkin Elmer) according to manufacturer's instructions. Luminescence proximity measurements were carried out in the Synergy H4 reader (BioTek) employing the fluorescence setting of the reader (ex: 680/30 nm; em: 620/40 nm).
Inhibition of IL-Production/Release in/from Jurkat T Cells Cells was Quantified as Follows:
Zero percent inhibition (MAX) was defined as the [IL-2] determined in supernatants derived from cells to which PHA & DMSO-only had been added instead of compound. Hundred percent inhibition (MIN) was defined as the [IL-2] determined in supernatants derived from cells that had been pre-treated with 1 μM CyclosporineA (Sigma) before the addition of 15 μg/ml PHA.
For routine IC50 determinations of compounds, 8 concentrations of a serial dilution (1:3.16) were tested, starting off from 10 μM.

[2] = target: T1, CRAC channel (endogenous SOC in HEK293 cells) (Homo sapiens, UniProt Q96D31); assay: HEK Calcium Influx Assay (FLIPR); assay type: cell-based; settings: 10 μM compound, thapsigargin store depletion, Ca2+ signal 9.5-10 min post-administration, read-out: % inhib. [@ 10 μM] FLIPR
T1 construct: host or cells: HEK293
T1 sequence (Q96D31 whole entry): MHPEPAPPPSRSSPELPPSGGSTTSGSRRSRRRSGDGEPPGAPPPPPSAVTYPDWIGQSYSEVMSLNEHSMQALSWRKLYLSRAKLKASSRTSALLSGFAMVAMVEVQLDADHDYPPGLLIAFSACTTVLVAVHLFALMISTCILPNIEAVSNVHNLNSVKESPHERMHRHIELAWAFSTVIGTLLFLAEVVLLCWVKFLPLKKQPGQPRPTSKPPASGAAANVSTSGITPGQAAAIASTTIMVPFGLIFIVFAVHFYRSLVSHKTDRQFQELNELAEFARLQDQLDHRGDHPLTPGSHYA
Protocol: Compounds of the invention have been tested for their effects on CRAC channels according to the following or similar procedures.
The effect of compounds of the invention on intracellular [Ca^2+] was tested in the HEK293 cell line (ECACC).
HEK293 cells were cultured in DMEM/F12/Glutamax (Gibco) containing 10% FCS (Gibco), and maintained at 37° C., 5% CO2. Cell were split twice a week [3·10^6 (Mon-Thu) and 1·10^6 (Thu-Mon) cells/50 ml medium in T-175 ZK culture flasks, respectively]. 24 hours pre-experiment, cells were seeded on 96 well plates (Poly-D-Lysine 96well Black/Clear Plate, BD Biocoat REF 356640) at a density of 40,000 cells/well in DMEM/F12 (Gibco) containing 10% FCS (Gibco), and maintained at 37° C., 5% CO2.
Prior to store-depletion, cell culture medium was removed and cells were loaded with the a Ca^2+-sensitive fluorescent dye comprised within the Calcium-4-assay kit (Molecular Devices) in nominally Ca^2+-free HBS buffer (140 mM NaCl, 4 mM KCl, 0.2 mM MgCl2, 11 mM D-glucose, and 10 mM HEPES, pH 7.4) according to manufacturer's instruction for 60 min at 37° C., 5% CO2.
Passive depletion of intracellular Ca^2+-stores was then triggered by employing the SERCA inhibitor thapsigargin (2 μM final) for 10 min in the dark (rt). To prevent immediate Ca^2+-entry via the activated Store-operated channels (SOCs), cells were maintained in Ca^2+-free HBS buffer comprising 100 μM EGTA during store-depletion.
Intracellular changes in [Ca^2+] were subsequently monitored with the FLIPR device (Molecular Devices). In brief, baseline imaging post-store depletion was allowed for 1 min before adjusting the extracellular buffer to 3 mM CaCl2. Increases in intracellular [Ca^2+] due to pre-activated SOC channels were monitored for 15 min until intracellular Ca^2+ levels had declined into a steady-state. Finally, compounds were administered and Ca^2+ signals were recorded for additional 10 min.
Inhibition of endogenous SOC in HEK293 cells was quantified employing the average Ca^2+ signal measured from 9.5-10 min post-administration. Zero percent inhibition (MAX) was defined as the Ca^2+ signal recorded from wells to which DMSO-only had been added instead of compound. Hundred percent inhibition (MIN) was defined as the signal obtained from wells in which cells haven't been treated with TG prior to Ca^2+ addition and to which DMSO-only had been added instead of compound. For routine IC50 determinations of compounds, 8 concentrations of a serial dilution (1:3.16) were tested, starting off from 10 μM. Reliable IC50's could consequently be determined only, if they were at least sub 2.5-3 μM.

SMILES	IC50 [1]	inhibition at 10 µM [2]
Cc1noc(-c2ccc(C)c(-c3cc(C(=O)Nc4c(F)cccc4F)nn3C)c2)n1 [Example 19, N-(2,6-Difluoro-phenyl)-1-methyl-5-[2-methyl-5-(3-methyl-[1,2,4]oxadiazol-5-yl)-phenyl]-1H-pyrazole-3-carboxylic acid amide]	1 to 5 µM	< 50%
COc1ccc(C2CC2)cc1-c1c(C)c(C(=O)Nc2c(F)cccc2F)nn1C [Example 34, 5-(5-Cyclopropyl-2-methoxy-phenyl)-N-(2,6-difluoro-phenyl)-1,4-dimethyl-1H-pyrazole-3-carboxylic acid amide]	0.5 to 1 µM	> 70%
Cc1ccc(-c2ncn(C)n2)cc1-c1cc(C(=O)Nc2c(F)cccc2F)nn1C [Example 23, N-(2,6-Difluoro-phenyl)-1-methyl-5-[2-methyl-5-(1-methyl-1H-[1,2,4]triazol-3-yl)-phenyl]-1H-pyrazole-3-carboxylic acid amide]	1 to 5 µM	< 50%
Cn1nc(C(=O)Nc2c(F)cccc2F)cc1-c1cc(-c2ncco2)ccc1OC(F)(F)F [Example 30, N-(2,6-Difluoro-phenyl)-1-methyl-5-[5-oxazol-2-yl-2-(trifluoromethyloxy)-phenyl]-1H-pyrazole-3-carboxylic acid amide]	0.5 to 1 µM	> 70%
COc1ccc(C2CC2)cc1-c1c(C)c(C(=O)Nc2c(F)cncc2F)nn1C [Example 35, 5-(5-Cyclopropyl-2-methoxy-phenyl)-N-(3,5-difluoro-pyridin-4-yl)-1,4-dimethyl-1H-pyrazole-3-carboxylic acid amide]	0.5 to 1 µM	> 70%
Cc1ccc(-c2nccs2)cc1-c1c(C)c(C(=O)Nc2c(F)cccc2F)nn1C [Example 25, N-(2,6-Difluoro-phenyl)-1,4-dimethyl-5-(2-methyl-5-thiazol-2-yl-phenyl)-1H-pyrazole-3-carboxylic acid amide]	1 to 5 µM	< 50%
COc1ccc(-c2nccs2)cc1-c1c(N)c(C(=O)Nc2c(F)cccc2F)nn1C [Example 44, 4-Amino-N-(2,6-difluoro-phenyl)-5-(2-methoxy-5-thiazol-2-yl-phenyl)-1-methyl-1H-pyrazole-3-carboxylic acid amide]	1 to 5 µM	< 50%
Cn1nc(C(=O)Nc2c(F)cccc2F)cc1-c1cc(-c2nccs2)ccc1Cl [Example 10, 5-(2-Chloro-5-thiazol-2-yl-phenyl)-N-(2,6-difluoro-phenyl)-1-methyl-1H-pyrazole-3-carboxylic acid amide]	< 0.5 µM	< 50%
Cn1nc(C(=O)Nc2ccncc2F)cc1-c1ccc(C2CC2)cc1OC(F)(F)F [Example 41, 5-[4-Cyclopropyl-2-(trifluoromethyloxy)-phenyl]-N-(3-fluoro-pyridin-4-yl)-1-methyl-1H-pyrazole-3-carboxylic acid amide]	1 to 5 µM	> 70%
Cc1ccc(-c2nccs2)cc1-c1cc(C(=O)Nc2c(F)cccc2F)nn1C [Example 3, N-(2,6-Difluoro-phenyl)-1-methyl-5-(2-methyl-5-thiazol-2-yl-phenyl)-1H-pyrazole-3-carboxylic acid amide]	< 0.5 µM	< 50%
Cc1ccc(-c2nccs2)cc1-c1cc(C(=O)Nc2ccncc2F)nn1C [Example 1, N-(3-Fluoro-pyridin-4-yl)-1-methyl-5-(2-methyl-5-thiazol-2-yl-phenyl)-1H-pyrazole-3-carboxylic acid amide]	1 to 5 µM	> 70%
Cn1nc(C(=O)Nc2c(F)cncc2F)c(N)c1-c1cc(-c2ncco2)ccc1OC(F)(F)F [Example 50, 4-amino-N-(3,5-difluoropyridin-4-yl)-1-methyl-5-(5-(oxazol-2-yl)-2-(trifluoromethoxy)phenyl)-1H-pyrazole-3-carboxamide]	1 to 5 µM	< 50%
Cn1nc(C(=O)Nc2c(F)cncc2F)cc1-c1cc(C2CC2)ccc1OC(F)(F)F [Example 37, 5-[5-Cyclopropyl-2-(trifluoromethyloxy)-phenyl]-N-(3,5-difluoro-pyridin-4-yl)-1-methyl-1H-pyrazole-3-carboxylic acid amide]	< 0.5 µM	> 70%
Cc1ccc(-c2ncco2)cc1-c1cc(C(=O)Nc2c(F)cccc2F)nn1C [Example 18, N-(2,6-Difluoro-phenyl)-1-methyl-5-(2-methyl-5-oxazol-2-yl-phenyl)-1H-pyrazole-3-carboxylic acid amide]	0.5 to 1 µM	< 50%
Cc1ccc(-c2nccs2)cc1-c1c(C)c(C(=O)Nc2ccncc2F)nn1C [Example 26, N-(3-Fluoro-pyridin-4-yl)-1,4-dimethyl-5-(2-methyl-5-thiazol-2-yl-phenyl)-1H-pyrazole-3-carboxylic acid amide]	1 to 5 µM	< 50%
COc1ccc(-c2nccs2)cc1-c1cc(C(=O)Nc2c(F)cccc2F)nn1C [Example 8, N-(2,6-Difluoro-phenyl)-5-(2-methoxy-5-thiazol-2-yl-phenyl)-1-methyl-1H-pyrazole-3-carboxylic acid amide]	0.5 to 1 µM	> 70%
Cn1nc(C(=O)Nc2c(F)cccc2F)cc1-c1cc(C2CC2)ccc1OC(F)(F)F [Example 36, 5-[5-Cyclopropyl-2-(trifluoromethyloxy)-phenyl]-N-(2,6-difluoro-phenyl)-1-methyl-1H-pyrazole-3-carboxylic acid amide]	< 0.5 µM	> 70%
Cn1nc(C(=O)Nc2c(F)cccc2F)c(N)c1-c1cc(-c2ncco2)ccc1OC(F)(F)F [Example 49, 4-amino-N-(2,6-difluorophenyl)-1-methyl-5-(5-(oxazol-2-yl)-2-(trifluoromethoxy)phenyl)-1H-pyrazole-3-carboxamide]	0.5 to 1 µM	50 to 70%
Cc1ccc(-c2ccncc2)cc1-c1cc(C(=O)Nc2c(F)cccc2F)nn1C [Example 12, N-(2,6-Difluoro-phenyl)-1-methyl-5-(2-methyl-5-pyridin-4-yl-phenyl)-1H-pyrazole-3-carboxylic acid amide]	< 0.5 µM	> 70%
Cc1ccc(-c2ncco2)cc1-c1c(N)c(C(=O)Nc2c(F)cncc2F)nn1C [Example 43, 4-Amino-N-(3,5-difluoro-pyridin-4-yl)-1-methyl-5-(2-methyl-5-oxazol-2-yl-phenyl)-1H-pyrazole-3-carboxylic acid amide]	1 to 5 µM	< 50%
COc1ccc(-c2ncco2)cc1-c1c(N)c(C(=O)Nc2c(F)cncc2F)nn1C [Example 45, 4-amino-N-(3,5-difluoropyridin-4-yl)-5-(2-methoxy-5-(oxazol-2-yl)phenyl)-1-methyl-1H-pyrazole-3-carboxamide]	1 to 5 µM	< 50%
